# In US20090275555A1, “Substituted indole ligands for the ORL-1 receptor” (priority 2004, published 2009):
# Where a name gives a salt, the structure may show the parent alone. Read-outs that look alike come from different tables or passages of the source.
# How the values were obtained:
# [1] = biological target: ORL-1 receptor (Homo sapiens, UniProt P41146); test: Receptor binding studies, radioligand [3H]-AcRYYRWK-NH2
# Protocol: The receptor binding studies were carried out on 96-well plates; the incubation medium was Tris HCl pH 7.4 (4° C.) containing MgCl2 (5 mM), EGTA (0.2 mM), BSA (0.1%), with a final volume of 1.0 ml, using as radioligand [^3H]-AcRYYRWK-NH2 (Amersham, 103 Ci/mmol). The samples were incubated at 37° C. for 120 min. and were then filtered off via Whatman GF/B filters pre-treated with 0.2% polyethylenimine. The filters were washed three times with Tris HCl buffer pH 7.4 (4° C.). The radioactivity present on the filters was measured using a Packard Top Count microplate scintillation counter.
# [2] = biological target: T1, ORL-1 receptor (Cavia porcellus, UniProt P47748); test: Electrically stimulated guinea pig ileum (GPI) assay; format: cell-based
# T1 construct: evaluated for ORL-1 functional activity in electrically stimulated guinea pig ileum; from tissue; host or cells: guinea pig ileum
# T1 sequence (P47748 whole entry): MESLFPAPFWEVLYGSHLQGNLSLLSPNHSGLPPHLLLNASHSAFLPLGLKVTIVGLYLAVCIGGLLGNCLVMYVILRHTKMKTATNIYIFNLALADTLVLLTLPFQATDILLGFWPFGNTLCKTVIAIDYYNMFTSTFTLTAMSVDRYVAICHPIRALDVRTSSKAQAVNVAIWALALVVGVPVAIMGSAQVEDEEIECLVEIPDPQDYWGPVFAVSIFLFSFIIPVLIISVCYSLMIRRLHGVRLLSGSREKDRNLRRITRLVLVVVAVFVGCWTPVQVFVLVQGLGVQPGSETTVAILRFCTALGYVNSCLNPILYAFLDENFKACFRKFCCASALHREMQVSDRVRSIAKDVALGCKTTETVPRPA
# Protocol: Compounds of the invention are evaluated for ORL-1 functional activity in electrically stimulated guinea pig ileum, in agreement with the experimental protocol described in Caló et. al., Br. J. Pharmacol. 129, 1183, (2000). The ORL-1 antagonist activity (pKb) is evaluated against the endogenous ORL-1 agonist N/OFQ.
# [3] = ORL-1 receptor, radioligand [3H]-AcRYYRWK-NH2, read-out: Binding affinity Ki
# [4] = electrically stimulated guinea pig ileum, against the endogenous ORL-1 agonist N/OFQ, read-out: Antagonist activity (GPI) pKb vs N/OFQ (converted)
# ORL-1 receptor (Homo sapiens, UniProt P41146), sequence (P41146 whole entry): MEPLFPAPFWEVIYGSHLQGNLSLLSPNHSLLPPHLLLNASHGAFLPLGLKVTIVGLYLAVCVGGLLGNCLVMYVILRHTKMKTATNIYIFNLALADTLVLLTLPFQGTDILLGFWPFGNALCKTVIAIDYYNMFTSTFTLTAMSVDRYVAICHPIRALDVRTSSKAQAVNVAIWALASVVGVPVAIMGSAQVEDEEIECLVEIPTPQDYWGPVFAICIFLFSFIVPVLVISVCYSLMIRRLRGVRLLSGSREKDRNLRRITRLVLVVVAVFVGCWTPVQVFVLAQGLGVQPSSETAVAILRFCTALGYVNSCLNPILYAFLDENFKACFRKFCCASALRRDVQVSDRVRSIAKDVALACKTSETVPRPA
SMILES,Ki [1],Kb [2],"Ki [1, 3]","Kb [2, 4]"
"Cc1cccc(C)c1C1CCN(Cc2c(C(=O)N3CCN(CCOCCO)CC3)[nH]c3ccccc23)CC1 [Example 97, {3-[4-(2,6-Dimethyl-phenyl)-piperidin-1-ylmethyl]-1H-indol-2-yl}-{4-[2-(2-hydroxy-ethoxy)-ethyl]-piperazin-1-yl}-methanone]",6.5 nM,1 nM,–,–
"CN1CCC(NC(=O)Cn2c(-c3ccccc3)c(CN3CCC(c4c(Cl)cccc4Cl)CC3)c3ccccc32)CC1 [Example 160, 2-{3-[4-(2,6-Dichloro-phenyl)-piperidin-1-ylmethyl]-2-phenyl-indol-1-yl}-N-(1-methyl-piperidin-4-yl)-acetamide]",0.7 nM,1.74 nM,–,–
"NC(=O)Cn1c(C(=O)N2CCOCC2)c(CN2CCC(c3c(Cl)cccc3Cl)CC2)c2ccccc21 [Example 150, 2-[3-[4-(2,6-Dichloro-phenyl)-piperidin-1-ylmethyl]-2-(morpholine-4-carbonyl)-indol-1-yl]-acetamide hydrochloride]",–,8.91 nM,8 nM,–
"Cc1cccc(C)c1C1CCN(Cc2c(-c3ccccc3)n(CC(=O)NC3CCN(C)CC3)c3ccccc23)CC1 [Example 165, 2-{3-[4-(2,6-Dimethyl-phenyl)-piperidin-1-ylmethyl]-2-phenyl-indol-1-yl}-N-(1-methyl-piperidin-4-yl)-acetamide ditrifluoroacetate]",–,4.17 nM,4.6 nM,–
"O=C(c1[nH]c2ccccc2c1CN1CCC(c2c(Cl)cccc2Cl)CC1)N1CCN(CCCO)CC1 [Example 75, {3-[4-(2,6-Dichloro-phenyl)-piperidin-1-ylmethyl]-1H-indol-2-yl}-[4-(3-hydroxy-propyl)-piperaizn-1-yl]-methanone]",–,–,1.5 nM,3.02 nM
"NC(=O)Cn1c(-c2ccccc2)c(CN2CCC(c3c(Cl)cccc3Cl)CC2)c2ccccc21 [Example 143, 2-(3-[4-(2,6-Dichloro-phenyl)-piperidin-1-ylmethyl]-2-phenyl-indol-1-yl)-acetamide]",–,–,3.2 nM,2.24 nM
Cc1cccc(C)c1C1CCN(Cc2c(C(=O)N3C[C@@H]4C[C@H]3CO4)[nH]c3ccccc23)CC1 [Example 96],–,–,10 nM,1.95 nM
"Cc1cccc(C)c1C1CCN(Cc2c(C(=O)N3CCC4(CCN(C)C4)C3)[nH]c3ccccc23)CC1 (stereo not drawn) [Example 109, {3-[4-(2,6-Dimethyl-phenyl)-piperidin-1-ylmethyl]-1H-indol-2-yl}-(7-methyl-2,7-diaza-spiro[4.4]non-2-yl)-methanone]",–,–,5.4 nM,1.23 nM
"CN1CCC(NC(=O)Cn2c(C(=O)N3CCOCC3)c(CN3CCC(c4c(Cl)cccc4Cl)CC3)c3ccccc32)CC1 [Example 161, 2-[3-[4-(2,6-Dichloro-phenyl)-piperidin-1-ylmethyl]-2-(morpholine-4-carbonyl)-indol-1-yl]-N-(1-methyl-piperidin-4-yl)-acetamide dihydrochloride]",–,–,8.2 nM,0.955 nM
